# Results: paper PMC9572521, “Synthesis, Docking Studies and Pharmacological Evaluation of Serotoninergic Ligands Containing a 5-Norbornene-2-Carboxamide Nucleus” (Molecules, 2022)
# “Also recorded” adds a separate entry of the source.
# Assays:
# [1] = tested on: mice; experiment: Rota-rod test (motor coordination); format: in vivo, mouse; conditions: 30 mg/kg i.p., 60 min before the test
# Protocol: (§1) The experiments were carried out, in the Experimental Medicine Center of Medical University of Lublin, on six-week-old naive male Swiss mice, weighing 24–30 g. The mice were housed in cages, five individuals per cage in an environmentally controlled rooms (ambient temperature 22 ± 1 °C; relative humidity 50–60%; 12 h light/dark cycle, lights on at 8:00). Standard laboratory food(LSM-Agropol-Motycz, Lublin, Poland) and filtered water were available ad libitum. All the experimental procedures were carried out, according to the National Institute of Health Guidelines for the Care and Use of Laboratory Animals and to the European Community Council Directive for the Care and Use of Laboratory Animals of 22 September 2010 (2010/63/EU) and approved by the Local Ethics Committee for Animal Experimentation in Lublin. The investigated compounds (Norbo-4, Norbo-8, Norbo-10, Norbo-14, Norbo-18 and Norbo-20) in all tests were administered intraperitoneally (i.p.), dissolved in dimethyl sulfoxide (DMSO, final concentration of 0.1%) and then diluted by aqueous solution of 0.5% methylcellulose (tylose) and injected 60 min before the tests. […] All compounds were given in a volume of 10 mL/kg to mice. The control animals received an equivalent volume of the solvent at the respective time before the tests. All the experiments were conducted in the light phase between 09.00 a.m. and 14.00 p.m. The experiments were performed by an observer unaware of the treatment administered. The effects of investigated compounds on motor coordination were evaluated in the rota-rod and chimney tests. In the first test, motor impairments were measured, defined as the inability to keep balance on a rotating rod (at constant speed of 18 rpm) for 1 min. In the second test, motor impairments were assessed by mouse inability to climb up the tube backwards (3 cm in inner diameter, 25 cm long) within 60 s. Before the tests, the animals were trained once a day for 3 days. The animals able to stay on the rotating rod or to leave the chimney for 60 s were approved for experiments.
# [2] = target: T1, D2 receptor (Rattus norvegicus, UniProt P61169); experiment: Functional D2 receptor [35S]GTPγS assay (antagonist mode vs dopamine; basal for agonism); format: biochemical; conditions: against 40 µM dopamine, rat striatal homogenate; read-out: D2 receptor antagonistic activity IC50 (95% CI);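 also: [35S]GTPγS binding counted by scintillation after 60 min at 30 °C, nonspecific binding defined with 100 µM unlabeled GTPγS, inhibition curves fitted by one-site nonlinear regression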
# T1 construct: 15μg/mL of striatal homogenate was incubated in triplicate; from tissue; host or cells: rat striatum homogenate
# T1 sequence (P61169 whole entry): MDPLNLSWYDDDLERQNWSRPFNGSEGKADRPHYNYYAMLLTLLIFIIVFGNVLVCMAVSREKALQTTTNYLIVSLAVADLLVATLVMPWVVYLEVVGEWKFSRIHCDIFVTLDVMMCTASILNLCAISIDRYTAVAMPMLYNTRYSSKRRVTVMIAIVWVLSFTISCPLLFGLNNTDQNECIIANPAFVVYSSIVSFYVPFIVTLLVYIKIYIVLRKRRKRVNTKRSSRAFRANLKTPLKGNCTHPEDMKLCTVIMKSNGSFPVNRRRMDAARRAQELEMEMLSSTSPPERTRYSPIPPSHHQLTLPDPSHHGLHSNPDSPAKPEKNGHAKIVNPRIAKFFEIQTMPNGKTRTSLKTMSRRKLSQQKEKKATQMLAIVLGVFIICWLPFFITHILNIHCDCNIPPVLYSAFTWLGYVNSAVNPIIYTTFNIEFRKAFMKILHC
# [3] = target: 5-HT2A receptor (Rattus norvegicus, UniProt P14842); experiment: 5-HT2A competition binding assay ([3H]ketanserin, frontal cortex homogenates); conditions: read-out: 5-HT2A Ki (95% CI)
# 5-HT2A receptor, sequence (P14842 whole entry): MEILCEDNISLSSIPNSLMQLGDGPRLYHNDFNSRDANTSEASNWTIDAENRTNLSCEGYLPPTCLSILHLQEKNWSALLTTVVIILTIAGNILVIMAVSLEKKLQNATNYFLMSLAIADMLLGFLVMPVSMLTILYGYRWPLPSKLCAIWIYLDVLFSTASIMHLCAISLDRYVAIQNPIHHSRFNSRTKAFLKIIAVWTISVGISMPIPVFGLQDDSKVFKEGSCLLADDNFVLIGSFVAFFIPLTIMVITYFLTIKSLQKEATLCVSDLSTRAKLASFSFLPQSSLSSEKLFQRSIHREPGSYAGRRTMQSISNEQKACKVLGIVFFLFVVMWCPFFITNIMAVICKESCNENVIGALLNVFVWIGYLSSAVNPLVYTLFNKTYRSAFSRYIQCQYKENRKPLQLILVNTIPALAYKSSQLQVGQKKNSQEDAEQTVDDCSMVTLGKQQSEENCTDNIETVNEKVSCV
# [4] = tested on: mice; experiment: Spontaneous locomotor activity; format: in vivo, mouse
# [5] = tested on: mice; experiment: Forced swim test (FST, Porsolt's test); format: in vivo, mouse; conditions: 60 min before the test
# Protocol: as §1, with “The experiment was carried out according to the method” for “The effects”, “of Porsolt et al.. Mice were individually placed in a glass cylinder (25 cm high; 10 cm in diameter) containing water maintained at 23–25 °C, and were left there for 6 min. The total duration of immobility was recorded during the last 4 min of a 6-min test session. A mouse was regarded as immobile when it remained floating” for “of investigated compounds”, “on” for “on motor coordination were evaluated in”, “the water, making only small movements” for “the rota-rod and chimney tests. In the first test, motor impairments were measured, defined as the inability”, “keep its head above” for “keep balance on a rotating rod (at constant speed of 18 rpm) for 1 min. In”, “the water.” for “the second test, motor impairments were assessed by mouse inability to climb up the tube backwards (3 cm in inner diameter, 25 cm long) within 60 s. Before the tests, the animals were trained once a day for 3 days. The animals able to stay on the rotating rod or to leave the chimney for 60 s were approved for experiments.”
smiles,measurement,setting,value
"Cc1cccc(N2CCN(CCCNC(=O)C3CC4C=CC3C4)CC2)c1C (stereo not drawn) [Norbo-4, endo-N-(3-(4-(2,3-dimethylphenyl)piperazin-1-yl)propyl)bicyclo[2.2.1]hept-5-ene-2-carboxamide]",time on rota-rod,[1],decreased also time on rota-rod; also recorded: impaired motor coordination
same,IC50,[2],33.1 µM
same,Ki,[3],0.0333 µM
same,spontaneous locomotor activity,"[4]; 15 mg/kg i.p., after 6 min of observation",significant decrease in locomotor activity; also recorded: induced the same effect
same,spontaneous locomotor activity,"[4]; 15 mg/kg i.p., after 20 min of observation",significant decrease in locomotor activity; also recorded: induced the same effect
same,spontaneous locomotor activity,"[4]; 30 mg/kg i.p., after 6 min of observation",significant decrease in locomotor activity
same,spontaneous locomotor activity,"[4]; 30 mg/kg i.p., after 20 min of observation",significant decrease in locomotor activity
same,immobility time in FST,[5]; 3.75 mg/kg i.p.,significant reduction in immobility time; also recorded: significant reduction of immobility time
same,immobility time in FST,[5]; 15 mg/kg i.p.,significant reduction in immobility time; also recorded: significant reduction of immobility time
same,immobility time in FST,[5]; 30 mg/kg i.p.,significant reduction in immobility time
